This is an account of results in ChEMBL document CHEMBL4007459, “Design of Potent mRNA Decapping Scavenger Enzyme (DcpS) Inhibitors with Improved Physicochemical Properties To Investigate the Mechanism of Therapeutic Benefit in Spinal Muscular Atrophy (SMA)” (J Med Chem, 2017).

Usually IC50 stands for the midpoint of a concentration-inhibition curve. As usually defined, the logD is the decadic logarithm of the distribution of all forms, ionised or not, between an organic phase and buffer at a given pH. Read a low logD as a more hydrophilic compound. For orientation: solubility (kinetic) means solubility judged after dilution from a stock solution rather than from solid. As usually defined, the Papp A→B is the apparent permeability from the apical to the basolateral side of a cell layer.

Converted amounts (≈) assume the structure as drawn.

One series deals with T1, Dihydrofolate reductase (Homo sapiens, UniProt P00374).
T1 sequence (P00374 whole entry): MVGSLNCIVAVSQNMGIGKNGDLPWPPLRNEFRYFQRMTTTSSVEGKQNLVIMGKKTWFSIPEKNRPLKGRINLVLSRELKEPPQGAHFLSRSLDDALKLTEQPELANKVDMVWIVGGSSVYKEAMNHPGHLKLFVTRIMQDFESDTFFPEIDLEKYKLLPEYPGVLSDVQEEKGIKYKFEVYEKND
As to the kind of experiment: Inhibition of DHFR (unknown origin).

Series [1] can be described thus: Drug uptake in lymphoblasts (unknown origin) at 10 nM in presence of vacuolar type ATPase inhibitor concanamycin A measured after […]. Type of series: ADME, cell-based. The note with it: lymphoblast, 0.01 µM.
Series [2] is described as follows: Drug uptake in HEK293 cells at 10 nM in presence of vacuolar type ATPase inhibitor bafilomycin measured after […]. In kind it is ADME, cell-based. Conditions: human, 0.01 µM; call rule not given here.
Series [3] in a line: Drug uptake in lymphoblasts (unknown origin) at 10 nM in presence of vacuolar type ATPase inhibitor bafilomycin measured after […]. The note with it: lymphoblast, 0.01 µM. Type of series: ADME, cell-based.
Series [4] can be described thus: Drug uptake in HEK293 cells at 10 nM in presence of vacuolar type ATPase inhibitor concanamycin A measured after […]. In kind it is ADME, cell-based. The note with it: human, 0.01 µM.
The nature of series [5]: Apparent intrinsic clearance in human liver microsomes at 1 uM. The note with it: read-out: CLH(app). Type of series: ADME, microsome. (In general: Liver microsomes are vesicles of endoplasmic reticulum, rich in cytochrome P450 enzymes.)
The nature of series [6]: Lipophilicity, log D of the compound at pH 7.4. In kind it is physicochemical. The note with it: buffer.
Series [7] is described as follows: Kinetic solubility of the compound at pH 6.5. Conditions: buffer.
Series [8] is described as follows: Stability in human liver microsomes at 1 uM. Type of series: ADME, microsome. The note with it: read-out: Stability.
A short description of series [9]: Apparent passive permeability across apical to basolateral side in RRCK2 cells at 2 uM. Conditions: dog, MDCK. In kind it is ADME, cell-based, Canis lupus familiaris.
The target in the next series is T2, m7GpppX diphosphatase (Homo sapiens, UniProt Q96C86).
T2 sequence (Q96C86 whole entry): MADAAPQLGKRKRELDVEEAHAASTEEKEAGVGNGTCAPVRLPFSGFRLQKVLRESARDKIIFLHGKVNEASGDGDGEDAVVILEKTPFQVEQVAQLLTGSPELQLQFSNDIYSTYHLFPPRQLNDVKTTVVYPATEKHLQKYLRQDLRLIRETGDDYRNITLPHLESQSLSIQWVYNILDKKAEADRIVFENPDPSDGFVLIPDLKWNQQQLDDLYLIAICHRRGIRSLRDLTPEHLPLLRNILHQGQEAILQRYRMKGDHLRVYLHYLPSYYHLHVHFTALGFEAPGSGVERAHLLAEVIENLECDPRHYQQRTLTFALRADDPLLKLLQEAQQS

In a further series the test system is Plasma. The experiment in a line: Unbound fraction in FVB/N mouse plasma at 30 mg/kg, ip. Type of series: ADME, organism-based. The note with it: in vivo.
Series [10] is described as follows: Drug uptake in HEK293 cells at 100 nM in presence of vacuolar type ATPase inhibitor concanamycin A measured after […]. In kind it is ADME, cell-based. The note with it: human, 0.1 µM.
Series [11] in a line: Drug uptake in lymphoblasts (unknown origin) at 100 nM in presence of vacuolar type ATPase inhibitor bafilomycin measured after […]. Type of series: ADME, cell-based. Conditions: lymphoblast, 0.1 µM.
The nature of series [12]: Drug uptake in lymphoblasts (unknown origin) at 100 nM in presence of vacuolar type ATPase inhibitor concanamycin A measured after […]. Conditions: lymphoblast, 0.1 µM. Type of series: ADME, cell-based.
Series [13] can be described thus: Drug uptake in HEK293 cells at 100 nM in presence of vacuolar type ATPase inhibitor bafilomycin measured after […]. Type of series: ADME, cell-based. Conditions: human, 0.1 µM.

Description for m7GpppX diphosphatase: Inhibition of human DcpS assessed as increase in SMN2 promoter activity

As for `Nc1nc(N)c2c(COc3ccc(F)cc3F)cccc2n1`, the IC50 on Dihydrofolate reductase was greater than 50 µM.

On to `Nc1nc(N)c2c(OCC3CCN(Cc4ccccc4F)CC3)cccc2n1`, for which the Drug uptake result in series [1], in series [2], in series [3] and in series [4] was “Not Active” in each case.

Consider `Nc1nc(N)c2c(COc3ccccc3F)cccc2n1`, for which the half-maximal inhibitory concentration (IC50) against Dihydrofolate reductase was greater than 30 µM.

Turning to `Nc1nc(N)c2c(COc3cccc(Cl)c3)cccc2n1`, the IC50 on Dihydrofolate reductase was found to be 38 µM.

On to `Nc1nc(N)c2c(OCc3cc(F)cc(F)c3)cccc2n1`, for which half-maximal inhibition at Dihydrofolate reductase (IC50) required 0.63 µM.

Regarding `Cc1ncccc1OCc1cccc2nc(N)nc(N)c12`, the Drug uptake entry in series [1], in series [2], in series [3] and in series [4] was “Not Active” in each case. Besides, in series [5], the microsomal CLint at 1 µM was less than 8 µL/min/mg. On Dihydrofolate reductase, this compound returned a 50% inhibitory concentration (IC50) greater than 150 µM. This compound came in with a logD in series [6] of 1.4. Moreover, the solubility (kinetic) in [7] amounted to 274 µM (≈ 77.1 µg/mL). Further, the half-life at 1 µM in [8] is greater than 120 min. Besides, the Papp A→B at 2 µM in series [9] stood at 18 ×10⁻⁶ cm/s.

With `Nc1nc(N)c2c(COc3cccc(F)c3)cccc2n1`, the concentration for half-maximal inhibition (IC50) against Dihydrofolate reductase is greater than 50 µM.

In the case of `Nc1nc(N)c2c(OCC3CCOCC3)cccc2n1`, 28 µM corresponded to half-maximal inhibition at Dihydrofolate reductase (IC50).

Turning to `Nc1nc(N)c2c(OCC3CCN(Cc4c(Cl)cccc4Cl)CC3)cccc2n1`, the Drug uptake result in series [1], in [2], in series [3] and in [4] was “Not Active” throughout. The microsomal CLint at 1 µM in [5] is greater than 250 µL/min/mg. The same compound returned a logD in series [6] of 2.8. In [7], the solubility (kinetic) stood at 45 µM (≈ 19.5 µg/mL). In series [8], the half-life at 1 µM amounted to 3 min. The apical-to-basolateral permeability (Papp A→B) at 2 µM in series [9] came to 0.62 ×10⁻⁶ cm/s.

Turning to `CC1(COc2cccc3nc(N)nc(N)c23)COC1`, the IC50 against Dihydrofolate reductase is 15 µM.

`Cc1cc(OCC2CCOCC2)c2c(N)nc(N)nc2c1`: the IC50 at m7GpppX diphosphatase was greater than 10 µM.

`N#Cc1cc(F)cc(OCc2cccc3nc(N)nc(N)c23)c1`: in [5], the microsomal CLint at 1 µM was less than 8.4 µL/min/mg. The same compound came in with an IC50 against Dihydrofolate reductase of 52 µM. The log distribution coefficient (logD) in series [6] is 1.9. In addition, the solubility (kinetic) in [7] turned out to be 31 µM (≈ 9.59 µg/mL). Also, the half-life at 1 µM in series [8] is greater than 115 min. Moreover, in [9], the apparent permeability from apical to basolateral (Papp A→B) at 2 µM was found to be 13 ×10⁻⁶ cm/s. The “Cp(f)” value in the series with Plasma was found to be 173 nM.

Take `Nc1nc(N)c2c(OCC3CCN(Cc4c(F)cccc4Cl)CC3)cccc2n1`: the Drug uptake result in series [1], in series [2], in series [3] and in [4] was “Not Active” in each case.

On to `COC[C@H](C)Oc1cccc2nc(N)nc(N)c12`, for which, at Dihydrofolate reductase, the IC50 worked out at 1.4 µM.

The compound `COC[C@@H](C)Oc1cccc2nc(N)nc(N)c12` gave an IC50 on Dihydrofolate reductase of 25 µM.

For `Cc1cc(COc2cc(F)cc(C#N)c2)c2c(N)nc(N)nc2c1`, at m7GpppX diphosphatase, the concentration for half-maximal inhibition (IC50) was greater than 10 µM.

Regarding `CCN(CC)CCCC(C)Nc1ccnc2cc(Cl)ccc12` (centres undefined) [CHLOROQUINE], the Drug uptake result in series [10], in series [11], in [12] and in [13] was “Not Active” in each case.
